Measured values reported in patent US20050148634A1, “1-N-Aminobenzimidazole derivatives” (ZERIA PHARMACEUTICAL CO., LTD, priority 2002, published 2005).

What was measured:
[1] = molecular target: T1, human CYP2C19 (Homo sapiens, UniProt P33261); assay: Test 3 human CYP2C19 activity inhibition test (S-(+)-mephenyloin to 4'-hydroxymephenyloin); format: in vitro ADME; conditions: test compound 10 μM, microsomes from human CYP2C19 expression system, formed 4'-hydroxymephenyloin compared with control
T1 construct: purchased Sumitomo Chemical Co., Ltd
Description: Test 3 (Human CPY2C19 Activity Inhibition Test)
CYP2C19 specifically induces the metabolic reaction of from S-(+)-mephenyloin into 4′-hydroxymephenyloin. Using the CYP2C19 expression system, the inhibitory effect of each test substance was investigated based on the amount (concentration) of formed 4′-hydroxymephenylion as an index of CYP2C19 activity.
a) Metabolic Activity Test
As a reaction mixture, a 125 μmol/L solution of S-(+)-mephenyloin in methanol (50 μL) and a 25 μmol/L solution of each test substance in methanol (0, 10, 100 or 200 μL) were added to 10-mL test tube made of glass, and the solvent was distilled off under a nitrogen gas stream (40° C.).
After incubated at 37° C. for 10 minutes, a 12% aqueous solution of perchloric acid (50 μL) was added to terminate the reaction.
Subsequent to the termination of the reaction, 10 μg/mL methyl p-hydroxybenzoate (50 μL) as an internal standard (I.S.) and diethyl ether (2 mL) were added. The resulting mixture was shaken for 10 minutes, and then centrifuged (3,000 rpm, 10 minutes). The organic layer was separately collected, and under a nitrogen gas stream (40° C.), the solvent was distilled off. The residue was dissolved in a mobile phase (200 μL), and an analysis was conducted by high performance liquid chromatography (HPLC).
Using a solution of 4′-hydroxymephenyloin in lieu of the S-(+)-mephenyloin solution, a calibration line was prepared following the above-described reaction method. Quantitation was conducted based on a peak area ratio of 4′-hydroxymephenyloin to the I.S. Comparing the formed amount of 4′-hydroxymephenyloin as a control with that of 4′-hydroxymephenyloin at the time of the existence of the test compound, the comparison result was used as an index of activity.
HPLC was conducted under the following HPLC conditions A or HPLC conditions B. […]

[2] = tested on: histamine-stimulated gastric acid secretion; assay: Test 2 gastric acid secretion inhibitory effect, acute fistula method; format: in vivo, Sprague-Dawley (SD) rats; conditions: male SD rats, administered into the duodenum, total gastric acid secreted on 3rd-5th hours, Probit method; for ED50: Rattus norvegicus
Description: Test 2 (Gastric Acid Secretion Inhibitory Effect)
(1) As laboratory animals, seven-week old male Sprague-Dawley (SD) rats were purchased from CHARLES RIVER JAPAN, INC. Subsequent to preliminary rearing for 5 days or longer, they were used in an experiment.
Each test medicine was suspended or dissolved in a 0.5% carboxymethylcellulose sodium solution to prepare a volume of 2.5 mL/kg.
(2) Measurement of Gastric Acid Secretion
Using rats fasted for 18 hours, histamine-stimulated gastric acid secretion in an acute fistula method following the method reported by Hiramatsu et al. (Dig. Dis. Sci., 39, 689-697 (1994)) was measured. Described specifically, each rat was lightly anesthetized with diethyl ether. After that, a winged tube needle with 3.8% citric acid solution filled therein was caused to dwell in the caudal vein. Celiotomy was performed, and the pyloric part of the stomach was ligated. A small hole was then formed in the duodenum, and a feeding tube with physiological saline filled therein was caused to dwell there. After the interior of the stomach was washed with physiological saline, a polyethylene-made fistula tube (inner diameter: 4 mm) was fitted to the proventriculus part and an incised part of the proventriculus was ligated to hold the fistula tube in place. The stomach and duodenum were returned into the abdominal cavity. Celiotomy was performed with the fistula tube and feeding tube being left extending outside, and the rat was placed in a Ballman Cage Type II. Histamine was continuously injected through the winged needle allowed to dwell in the caudal vein (8 mg/kg/h, 1.38 mL/h). Fifteen minutes later, the gastric juice was sampled, and after that, the gastric juice was sampled at intervals of 1 hour. After the amount of each gastric juice sample was recorded, it was titrated with 0.1 mol/L NaOH to a final point of pH 7.0. From the volume required for the titration, the acidity was calculated. The quantity of the secreted gastric acid was determined from the product of the amount of the gastric juice and the acidity. Incidentally, the rats were divided into groups such that the total amount of the first gastric juice samples became equal in each group. Each test medicine was administered in a volume of 2.5 mL/kg into the duodenum through the feeding tube fitted beforehand in the duodenum. To a control group, 0.5% Na—CMC solution was administered.
(3) Analysis of the Results
From the results so obtained, data were presented in terms of average ±S.D. The sum of quantities of gastric acid secreted on the 3rd, 4th and 5th hours after the first sampling was recorded as a total quantity of secreted gastric acid. The percent inhibition in each group was calculated from the total quantity of secreted gastric acid in the control group and the total quantity of secreted gastric acid in the group. From the percent inhibition in each group, the 50% effective dose (ED50) was next calculated by the Probit method.

[3] = molecular target: T2, H+/K+-ATPase (Sus scrofa, UniProt P19156); assay: Test 1 proton pump inhibitory effect: H+/K+-ATPase enzyme inhibiting activity at pH 1; format: biochemical; conditions: swine stomach enzyme sample; test compound pretreated in pH 1 hydrochloric acid solution with 50% DMSO for 15 minutes; ATP substrate
T2 construct: An interface fraction obtained by the centrifugation was collected; from tissue; host or cells: swine stomach mucosal layer, membrane fraction from the sucrose interface
Description: Test 1 (Proton Pump Inhibitory Effect)
(1) Preparation of H^+/K^+-ATPase Enzyme Sample
A swine stomach which had been stored frozen was separated into a muscularis and a mucosal layer. After the mucosal layer was disrupted with a mixer in 5 volumes of 20 mmol/L tris-HCl buffer containing 0.25 mol/L of sucrose and 1 mmol/L of EGTA (pH 7.4, hereafter abbreviated as “tris-HCl buffer”), centrifugation was conducted at 9,000×g for 30 minutes. The supernatant was gently overlaid on 20 mmol/L tris-HCl buffer containing 30% of sucrose and 1 mmol/L of EGTA (pH 7.4, 8 mL), followed by ultracentrifugation at 100,000×g for 60 minutes. An interface fraction obtained by the centrifugation was collected and subjected to centrifugation twice under 113,000×g for 60 minutes. The sediment was suspended with tris-HCl buffer, and the suspension was homogenized at low rotational speed to provide an enzyme sample. The enzyme sample was stored frozen at −80° C. Using the method reported by Smith et al. (Anal. Biochem., 150, 76-85 (1985)), the thus-obtained sample was quantitatively analyzed for its protein content with a BCA protein assay reagent. The above procedure was all conducted under water cooling.
(2) Discussion about H+/K^+-ATPase Enzyme Inhibiting Activity at pH 1
Following a method making use of a method for the quantitation of inorganic phosphorus as a degradation product (Biochem. Biophys. Res. Commun., 40, 880-886 (1970)), an assay of H^+/K^+-ATPase enzyme inhibiting activity was performed by using ATP as a substrate. As a hydrochloric acid solution for the pretreatment of each test compound, a 1×10^−1 mol/L (pH 1) solution of hydrochloric acid with 50% DMSO contained therein was used. Solutions of each test compound at various concentrations were added to aliquots of the hydrochloric acid solution such that the solutions were diluted 1,000-fold, and the thus-diluted solutions were left over at room temperature for 15 minutes. […] 840-μL Aliquots of an enzyme solution (5 μg proteins) diluted with the TE buffer were then added. After incubated at 37° C. for 30 minutes, 50-μL aliquots of 40 mmol/LATP solution (dissolved in the TE buffer free of KCl) were added to initiate an enzymatic reaction (total volume: 1 mL, final ATP concentration: 2 mmol/L). Subsequent to incubation at 37° C. for 30 minutes, 2-mL aliquots of ice-cold 12% trichloroacetic acid were added to terminate the enzymatic reaction. A molybdenum reagent (1 mL; 3.75% ammonium molybdate/1.5 mol/L sulfuric acid) and butyl acetate (5 mL) were added. After vigorous shaking and mixing for 5 minutes, the absorbance of a butyl acetate layer was measured at 310 nm. From absorbances obtained by dissolving KH2PO4 solutions of various concentrations in aliquots of an 8% TCA solution and performing a similar procedure, a standard curve was prepared to perform a conversion of each quantity of inorganic phosphorus. The assay was conducted in duplicate. From a difference between an average quantity of inorganic phosphorus in the case of the KCl-containing TE buffer and an average quantity of inorganic phosphorus in the case of the KCl-free TE buffer, a residual activity was determined. Supposing that the activity of the control value (DMSO) was 100%, the percent inhibition of the compound was calculated. As the inhibition potency of each test compound, an IC50 value was calculated and presented. The test compounds were al used by dissolving them in dimethyl sulfoxide immediately before their use.

T1 sequence (P33261 whole entry): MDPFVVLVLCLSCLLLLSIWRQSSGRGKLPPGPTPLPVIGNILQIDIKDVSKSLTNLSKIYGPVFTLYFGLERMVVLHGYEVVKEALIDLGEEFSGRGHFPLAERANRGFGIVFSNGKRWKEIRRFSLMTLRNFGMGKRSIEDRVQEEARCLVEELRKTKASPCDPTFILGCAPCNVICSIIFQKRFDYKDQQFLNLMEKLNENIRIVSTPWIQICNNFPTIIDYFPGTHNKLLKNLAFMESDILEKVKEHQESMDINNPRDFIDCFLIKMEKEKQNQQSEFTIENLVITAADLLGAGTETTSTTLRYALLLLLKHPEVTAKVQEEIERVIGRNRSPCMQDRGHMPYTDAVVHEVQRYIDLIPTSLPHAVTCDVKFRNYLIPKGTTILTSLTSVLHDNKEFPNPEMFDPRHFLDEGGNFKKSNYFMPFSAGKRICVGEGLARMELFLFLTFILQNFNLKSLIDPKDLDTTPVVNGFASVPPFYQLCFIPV
T2 sequence (P19156 2-1034 limits assumed): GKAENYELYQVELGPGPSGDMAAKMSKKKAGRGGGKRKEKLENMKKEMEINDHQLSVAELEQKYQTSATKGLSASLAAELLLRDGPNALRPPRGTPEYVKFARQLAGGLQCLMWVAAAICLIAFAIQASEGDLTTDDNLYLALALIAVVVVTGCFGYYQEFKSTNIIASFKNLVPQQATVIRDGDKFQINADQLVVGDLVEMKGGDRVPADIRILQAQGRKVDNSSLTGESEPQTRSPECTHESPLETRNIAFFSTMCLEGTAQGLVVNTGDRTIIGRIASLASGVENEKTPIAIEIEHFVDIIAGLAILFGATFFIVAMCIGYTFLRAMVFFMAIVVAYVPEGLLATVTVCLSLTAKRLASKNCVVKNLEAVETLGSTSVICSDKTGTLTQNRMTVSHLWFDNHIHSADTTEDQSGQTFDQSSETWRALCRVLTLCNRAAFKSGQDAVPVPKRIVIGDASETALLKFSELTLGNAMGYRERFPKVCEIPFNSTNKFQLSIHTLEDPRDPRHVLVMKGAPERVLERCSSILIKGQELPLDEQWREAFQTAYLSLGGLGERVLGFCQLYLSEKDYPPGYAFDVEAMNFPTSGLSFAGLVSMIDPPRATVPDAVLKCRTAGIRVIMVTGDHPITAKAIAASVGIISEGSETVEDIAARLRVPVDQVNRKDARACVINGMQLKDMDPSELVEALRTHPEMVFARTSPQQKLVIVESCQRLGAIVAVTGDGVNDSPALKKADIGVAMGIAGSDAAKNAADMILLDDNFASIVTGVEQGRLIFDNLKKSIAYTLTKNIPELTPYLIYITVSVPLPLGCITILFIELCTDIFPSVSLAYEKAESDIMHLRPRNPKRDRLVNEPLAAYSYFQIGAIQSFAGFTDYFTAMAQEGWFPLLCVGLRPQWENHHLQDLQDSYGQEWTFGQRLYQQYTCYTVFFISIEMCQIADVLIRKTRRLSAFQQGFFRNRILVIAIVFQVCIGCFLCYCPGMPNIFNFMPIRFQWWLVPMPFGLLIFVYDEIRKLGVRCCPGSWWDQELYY
T2 sequence (P18434 whole entry partner): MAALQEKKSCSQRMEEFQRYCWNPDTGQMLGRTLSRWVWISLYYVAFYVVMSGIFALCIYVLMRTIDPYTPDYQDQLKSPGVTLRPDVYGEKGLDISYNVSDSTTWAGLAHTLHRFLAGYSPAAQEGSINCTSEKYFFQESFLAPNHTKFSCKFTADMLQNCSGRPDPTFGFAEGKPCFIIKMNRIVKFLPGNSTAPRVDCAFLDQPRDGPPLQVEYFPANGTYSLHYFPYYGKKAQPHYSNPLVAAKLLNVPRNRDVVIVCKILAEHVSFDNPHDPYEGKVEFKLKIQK

Structure (SMILES) | CYP2C19 activity inhibition (%) [1] | other results
COCCCOc1ccnc(C[S+]([O-])c2nc3ccccc3n2NCCCO)c1C (single isomer, unassigned; (+)) [(+) Isomer of Example 57] |  | CYP2C19 activity inhibition (%) ([1]; 10 µM): 67.4%
Cc1c(OCC(F)(F)F)ccnc1C[S+]([O-])c1nc2ccccc2n1NCCCO (racemic) [Example 36] |  | CYP2C19 activity inhibition (%) ([1]; listed as Racemic mixture of Example 36, 10 µM): 61.7%
COc1c(OCCCC(F)(F)F)ccnc1C[S+]([O-])c1nc2ccccc2n1N (racemic) [Example 26] | 73.2% | Gastric acid secretion inhibitory effect ED50 [2]: 2.6 mg/kg
COC(=O)CNn1c([S+]([O-])Cc2nccc(OCC(F)(F)F)c2C)nc2ccccc21 (racemic) [Example 47] |  | IC50 [3]: 4.85 µM
Cc1c(OCC(F)(F)F)ccnc1C[S+]([O-])c1nc2ccccc2n1NCCCO (single isomer, unassigned; (+)) [(+) Isomer of Example 36] |  | Gastric acid secretion inhibitory effect ED50 [2]: 1.1 mg/kg; CYP2C19 activity inhibition (%) ([1]; 10 µM): 70.6%
COCCCOc1ccnc(C[S+]([O-])c2nc3ccccc3n2NCCCO)c1C (racemic) [Example 57] |  | CYP2C19 activity inhibition (%) ([1]; listed as Racemic mixture of Example 57, 10 µM): 73%
Cc1c(OCCCC(F)(F)F)ccnc1C[S+]([O-])c1nc2ccccc2n1N (racemic) [Example 25] |  | Gastric acid secretion inhibitory effect ED50 [2]: 1.1 mg/kg
COc1ccc2nc([S@@+]([O-])Cc3ncc(C)c(OC)c3C)[nH]c2c1 [Esomeprazole, esomeprazole, reference compound] | 35.4% | ED50 [2]: 2.9 mg/kg
COCCCOc1ccnc(C[S+]([O-])c2nc3ccccc3n2N)c1C (racemic) [Example 21] | 78.6% | 
Cc1c(OCC(F)(F)F)ccnc1C[S+]([O-])c1nc2ccccc2n1NCC(C)O (mixture of isomers) [Example 55] | 63.8% | Gastric acid secretion inhibitory effect ED50 [2]: 3.6 mg/kg
COCCCOc1ccnc(C[S+]([O-])c2nc3ccccc3n2NCCCO)c1C (single isomer, unassigned; (-)) [(−) Isomer of Example 57] |  | CYP2C19 activity inhibition (%) ([1]; 10 µM): 77.6%
Cc1c(OCC(F)(F)F)ccnc1C[S+]([O-])c1nc2ccccc2n1NCCN(C)C (racemic) [Example 48] | 72.3% | 
COc1c(OCCOCC(F)(F)F)ccnc1C[S+]([O-])c1nc2ccccc2n1N (racemic) [Example 24] | 81.9% | 
Cc1c(OCCOCC(F)(F)F)ccnc1C[S+]([O-])c1nc2ccccc2n1N (racemic) [Example 23] | 75.6% | 

Continued, in another order:

CYP2C19 activity inhibition (%) [1] | Structure (SMILES) | other results
18.4% | COc1ccc2[nH]c([S+]([O-])Cc3ncc(C)c(OC)c3C)nc2c1 (centres unmarked) [Omeprazole, omeprazole, reference compound] | ED50 [2]: 3.6 mg/kg
8.7% | Cc1c(OCC(F)(F)F)ccnc1C[S+]([O-])c1nc2ccccc2[nH]1 (centres unmarked) [Lansoprazole, lansoprazole, reference compound] | ED50 [2]: 1.1 mg/kg
95.3% | Cc1c(OCCCOCC(F)(F)F)ccnc1C[S+]([O-])c1nc2ccccc2n1NCCCO (racemic) [Example 62] | 
33.1% | COc1ccnc(C[S+]([O-])c2nc3ccc(OC(F)F)cc3[nH]2)c1OC (centres unmarked) [Pantoprazole, pantoprazole, reference compound] | ED50 [2]: 0.34 mg/kg
71.4% | Cc1c(OCCOCC(F)(F)F)ccnc1C[S+]([O-])c1nc2ccccc2n1NCCCO (racemic) [Example 60] | 
72.1% | COCCCOc1ccnc(C[S+]([O-])c2nc3ccccc3n2NCC(C)O)c1C (mixture of isomers) [Example 63] | 
61.7% | COc1c(OCC(F)(F)F)ccnc1C[S+]([O-])c1nc2ccccc2n1NCCCO (racemic) [Example 59] | 
67.3% | COCCOc1ccnc(C[S+]([O-])c2nc3ccccc3n2NCCCO)c1C (racemic) [Example 58] | 
39.8% | COCCCOc1ccnc(C[S+]([O-])c2nc3ccccc3[nH]2)c1C (centres unmarked) [Rabeprazole, rabeprazole, reference compound] | ED50 [2]: 2.5 mg/kg
64.8% | COc1c(OCCOCC(F)(F)F)ccnc1C[S+]([O-])c1nc2ccccc2n1NCCCO (racemic) [Example 61] | 
